The values that follow come from patent US20190094246A1, “DETECTION OF NEURODEGENERATIVE DISEASES” (AMONETA DIAGNOSTICS SAS, priority 2016, published 2019).

Molecules are shown by their SMILES.

The test system of test [1] is RBCs from transgenic APP/PS1 mice versus age-matched Wild-Type mice. In words: RBC staining in Alzheimer animal model, transgenic versus wild type. The format is cell-based.
Excerpt: Transgenic mice used in this study carry two mutations associated with early onset AD: mutant amyloid precursor protein (K670N and M671L) and mutant human presenilin 1 (M146V). These transgenic mice develop AD-related phenotype consisting in beta-amyloid peptide overproduction and formation of amyloid plaques in their brain.
Test [2] relates to red blood cells (RBCs) from human subjects. In words: Dose-dependent staining of RBCs, flow cytometry (MEDFI). Particulars: 0.03, 0.1, 0.3, 1 and 3 μM; RBCs 200 000 cells/mL of 3 human subjects; channel FL1 (Ex. 1), FL3 (Ex. 9). The format is cell-based. A general note: Flow cytometry measures light scatter and fluorescence of single cells or particles in a stream.
Description: The blood from an animal or a human subject is sampled in specific 5 mL tube, such as lithium-heparin tube. The blood is manually mixed by inversion before use.
Red blood cells (RBCs) are obtained from whole blood after centrifugation at 200 g for 10 minutes at room temperature. RBCs pellet down and segregate from white blood cells, platelets and plasma. 5 μL of RBCs are pipetted, diluted 1000 times in 5 mL of Flow cytometry buffer (FACS buffer: 150 mM of NaCl; 1 mM of D-Glucose; 5 mM of Na2HPO4; 0.5 mM CaCl2) and either numbered by manual counting on disposable Malassez-like counting cell (X100 Cellule Fast Read, Fisher Scientific, Ref #11762712) with a microscope or counted with Flow count Fluorospheres (Beckman, Ref 7547053) so as to obtain a cell concentration of stock solution to be used in the test. […]
From these different concentration stocks, the same quantity (4) of compounds at desired concentration to be tested is added to erythrocytes in each FACS vial to obtain the same % of DMSO (0.5% of DMSO) at the end. […] In all experiments, a control is performed with the final amount of compound solvent (DMSO alone, without test compound), in order to obtain the auto-fluorescence of the RBCs.
These fluorescences are detected by the gating of erythrocytes in a log FSC/log SSC plot. […]

Regarding `COCCOCC#CB(C#CCOCCOC)n1c(C)cc(C)c1/C(=C1\N=C(C)C=C1C)c1ccc(C(=O)NCCCn2cc(C3=C(c4cn(C)c5ccccc45)C(=O)NC3=O)c3ccccc32)cc1` [Ex. 9], the “discrimination between transgenic and wild type mice by RBC staining” value in test [1] (1 μM, 5 transgenic mice and 6 age-matched wild type mice) is listed as “excellent accuracy”. Further, in test [1] (concentration not given), the “discrimination between the transgenic mouse group and control mouse group by RBC staining” value is “good accuracy”. The “staining of RBCs (index MEDFI)” value in test [2] was “dose-dependent staining”.
